This note sets out measurements from patent US20250099475A1, “METHODS OF TREATING HYPERTENSION BY PERIODIC SUPPRESSION OF ALDOSTERONE SYNTHASE” (Mineralys Therapeutics, Inc., priority 2022, published 2025).

pKi: −log10 of the molar value.

As usually defined, the pKi is −log10 of the Ki, conventionally taken in molar units.

Test [1] has as its system hypertensive subjects. Put plainly: Example 4 dose-ranging study: 24-hour ambulatory blood pressure monitoring (ABPM). The format is in vivo, human. The settings on record: for Change in ABPM (24 h) BPdias, Mean (sem) / Change in ABPM (24 h) BPmcan, Mean (sem) / Change in ABPM (24 h) BPsys, Mean (sem) / Change in ABPM (night) BPsys, Mean (sem) / Subjects with nighttime Dip 10-20% / Subjects with nighttime Dip <10% / Subjects with nighttime Dip >20%: Week 8, Full Analysis Set.

Test [2] concerns the target T1, human CYP 11B1 (hCYP11B1) (Homo sapiens, UniProt P15538).
T1 construct: expressed in transfected cells; host or cells: V79 cells (mitochondrial fraction)
T1 sequence (P15538 25-503): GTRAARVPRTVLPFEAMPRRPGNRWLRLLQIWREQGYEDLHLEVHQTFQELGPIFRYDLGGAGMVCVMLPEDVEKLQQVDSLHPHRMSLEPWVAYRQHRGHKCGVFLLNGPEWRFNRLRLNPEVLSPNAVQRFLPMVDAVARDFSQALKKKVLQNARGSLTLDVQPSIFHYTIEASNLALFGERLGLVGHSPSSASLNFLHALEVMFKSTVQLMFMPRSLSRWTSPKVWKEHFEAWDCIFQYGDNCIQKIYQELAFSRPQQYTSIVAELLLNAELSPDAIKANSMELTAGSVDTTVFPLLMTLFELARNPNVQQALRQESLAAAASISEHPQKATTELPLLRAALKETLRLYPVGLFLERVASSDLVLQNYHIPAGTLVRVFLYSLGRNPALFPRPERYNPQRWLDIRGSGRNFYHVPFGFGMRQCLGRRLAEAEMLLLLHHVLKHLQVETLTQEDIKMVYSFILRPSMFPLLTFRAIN
Put plainly: Assay of hCYP11B1 inhibition (11-deoxycortisol to cortisol). In kind it is biochemical. The settings on record: mitochondrial fraction of V79 cells stably expressing hCYP11B1; substrate 11-deoxycortisol; read-out: Inhibition constant (Ki) hCYP11B1. How it is done:
The inhibitory effects of Compound A on human CYP 11B1 (hCYP11B1) and human CYP11B2 (hCYP11B2) enzyme activity were evaluated by determining the enzymatic conversion rates of 11-deoxycortisol to cortisol for hCYP11B1 and 11-DOC to aldosterone for hCYP11B2.

Consider `CC(=O)N[C@H]1CC[C@H](NC(=O)CN2CCN(c3nncc(-c4ccc(C)cc4)n3)CC2)CC1` [Compound A HBr], for which the “overnight reduction of systolic BP (24 h ambulatory)” value in test [1] (100 mg QD cohort) is −11.5+/−2.9 mmHg. In test [1] (12.5 mg BID), the “Change in ABPM (24 h) BPdias, Mean (sem)” value was −5.4 (2.2) mmHg; the “Change in ABPM (24 h) BPmcan, Mean (sem)” value is given as −5.5 (2.7) mmHg; the “Change in ABPM (24 h) BPsys, Mean (sem)” value is reported as −5.7 (3.2) mmHg; the “Change in ABPM (night) BPsys, Mean (sem)” value is on record as −7.5 (4.0) mmHg. For the same compound, in test [1] (12.5 mg BID), the “Subjects with nighttime Dip 10-20%” value was determined as 31%, the “Subjects with nighttime Dip <10%” value turned out to be 69% and the “Subjects with nighttime Dip >20%” value was 0%. In addition, in test [1] (12.5 mg QD), the “Change in ABPM (24 h) BPdias, Mean (sem)” value is given as −2.3 (1.7) mmHg; the “Change in ABPM (24 h) BPmcan, Mean (sem)” value is −3.7 (2.6) mmHg; the “Change in ABPM (24 h) BPsys, Mean (sem)” value is listed as −5.2 (3.4) mmHg; the “Change in ABPM (night) BPsys, Mean (sem)” value is reported as −5.4 (4.2) mmHg. Further, in test [1] (12.5 mg QD), the “Subjects with nighttime Dip 10-20%” value was 36%, the “Subjects with nighttime Dip <10%” value worked out at 64% and the “Subjects with nighttime Dip >20%” value came to 0%. In addition, in test [1] (25 mg BID), the “Change in ABPM (24 h) BPdias, Mean (sem)” value is −6.1 (1.8) mmHg; the “Change in ABPM (24 h) BPmcan, Mean (sem)” value is given as −7.4 (2.3) mmHg; the “Change in ABPM (24 h) BPsys, Mean (sem)” value is given as −8.7 (2.9) mmHg; the “Change in ABPM (night) BPsys, Mean (sem)” value is recorded as −6.0 (2.8) mmHg. For the same compound, in test [1] (25 mg BID), the “Subjects with nighttime Dip 10-20%” value came to 17%, the “Subjects with nighttime Dip <10%” value is 79% and the “Subjects with nighttime Dip >20%” value is on record as 4%. Besides, in test [1] (50 mg QD), the “Change in ABPM (24 h) BPdias, Mean (sem)” value is on record as −3.0 (1.6) mmHg; the “Change in ABPM (24 h) BPmcan, Mean (sem)” value is given as −2.4 (2.2) mmHg; the “Change in ABPM (24 h) BPsys, Mean (sem)” value is −1.8 (3.0) mmHg; the “Change in ABPM (night) BPsys, Mean (sem)” value is given as 2.4 (4.2) mmHg. Moreover, in test [1] (50 mg QD), the “Subjects with nighttime Dip 10-20%” value is reported as 21%, the “Subjects with nighttime Dip <10%” value is 78% and the “Subjects with nighttime Dip >20%” value is reported as 0%. Moreover, in test [1] (100 mg QD), the “Change in ABPM (24 h) BPdias, Mean (sem)” value was −5.9 (1.5) mmHg; the “Change in ABPM (24 h) BPmcan, Mean (sem)” value was −7.4 (1.8) mmHg; the “Change in ABPM (24 h) BPsys, Mean (sem)” value is recorded as −8.9 (2.2) mmHg; the “Change in ABPM (night) BPsys, Mean (sem)” value is on record as −11.5 (2.5) mmHg. For the same compound, in test [1] (100 mg QD), the “Subjects with nighttime Dip 10-20%” value is reported as 46%, the “Subjects with nighttime Dip <10%” value worked out at 46% and the “Subjects with nighttime Dip >20%” value was 8%.
As to `CC(=O)N[C@H]1CC[C@H](NC(=O)CN2CCN(c3nncc(-c4ccc(C)cc4)n3)CC2)CC1` [Compound A], the pKi in test [2] is 6.32.
